According to patent US20010044445A1, “AZOLE INHIBITORS OF CYTOKINE PRODUCTION” (priority 1999, published 2001):

Experiments:
IL-2 = assay: CD3 and CD28 Activation of Peripheral Blood T Cells and Determination of Secreted IL-2 Levels (C28 HU Assay); type: cell-based, Human; details: PBMC stimulated with anti-CD3 and anti CD28 mAbs, 24 hour; for inhibition at 1 µM: concentration 1 μM (in c2); for IC50: IL-2 secretion
Method: Human peripheral blood mononuclear cells were cultured in RPMI 1640 medium supplemented with 10 μg/ml gentamicin, 50 μM 2-mercaptoethanol, 1X MEM non-essential amino acids (Sigma Chemical Co., St. Louis, Mo.), 100 U/ml sodium penicillin G, 100 μg/ml streptomycin sulfate, 2 mM L-glutamine, 1 mM sodium pyruvate (Life Technologies, Grand Island, N.Y.) and 10% fetal bovine serum (Hyclone, Logan, Utah) at 37° C. with 5% CO2.
Human peripheral blood mononuclear cells (PBMC) were isolated by Ficoll-Hypaque seperation. PBMCs were stimulated with a combination of immobilized anti-CD3 and soluble anti CD28 mAbs as described in Faltynek, et al. J. Enzyme Inhibition 1995, 9, 111-122, hereby incorporated by reference. Following a 24 hour incubation, cell supernatants were harvested and IL-2 levels were determined. 100 μl of 5 μg/ml monoclonal murine anti-human IL-2 antibody (Biosource International) in D-PBS was added to 96 well Maxisorb plates (Nunc) and incubated at 4° C. overnight. Plates were washed 4 times with D-PBS containing 0.05% Tween 20 (wash buffer) and blocked with D-PBS containing 1% BSA and 10 mM NaN3 (Diluent/Blocking buffer) for 1-3 hours at room temperature or overnight at 4° C. Plates were washed and recombinant human IL-2 diluted (at 10,000, 5,000, 2,500, 1,250, 625, 312.5, 156.25, 78, 39, 20 pg/ml) in diluent/blocking buffer containing a matched percentage of complete RPMI 1640 medium as the unknown samples. Tissue culture supernatant at various dilutions were added in triplicate at 100 μl/well. Plates were incubated for 2 hours at room temperature and washed 4 times with wash buffer. 100 pl of rabbit anti-human IL-2 (10 μg/ml, Genzyme) was added and incubated for 1 hour at room temperature. The incubation was followed by 4 washes and subsequent addition of 100 pl of 1:2000 dilution of alkaline phosphatase-conjugated goat anti-rabbit F(ab′)2 (Biosource International). After 1 hour the plates were washed 4 times and 100 μl of pNPP (Southern Biotech or Sigma) at 1 mg/ml in buffer was added. Color development was allowed to proceed at room temperature for 20 minutes before addition of 50 μl of 2 N NaOH. Absorbance at 405 nm was determined using a plate reader (Molecular Devices). IL-2 concentrations were calcualted using SoftMax (Molecular Devices) based on the IL-2 standard solutions.

[1] = system: Human peripheral blood mononuclear cells; assay: Human Concanavalin-A Proliferation Assay (Con HU Assay); type: cell-based; details: Homo sapiens, PBMC, concanavalin-A stimulated human PBMC; for inhibition at 1 µM / inhibition at 10 µM / inhibition at 100 µM: 72 h, 3 days, read-out: % Inhibition of proliferation (at concentrations of 1,10, or 100 μm); for inhibition at 1 µM: concentration 1 μm (in parentheses in the cell); for inhibition at 10 µM: concentration 10 μm (in parentheses in the cell); for IC50: tritiated thymidine; for inhibition at 100 µM: concentration 100 μm (in parentheses in the cell)
Outline: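 Proliferation read as tritiated thymidine uptake (0.5 μCi/well, 6 h pulse on day 3) in human PBMC cultured 3 days with 2.5 μg/ml (final) concanavalin-A. Cells, 50,000 per well in supplemented RPMI 1640 with 10% FBS, received compound 15 min before mitogen.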

[2] = Homo sapiens, read-out: % Inhibition of IL-2 secretion (At concentrations of 1, 10, or 100 μM)

In the case of `O=C(Nc1ccc(-n2nc(C(F)(F)F)cc2C(F)(F)F)cc1)Nc1ccc(C(F)(F)F)cc1` [Example 33, N-[4-[3,5-bis(trifluoromethyl)-1H-pyrazol-1-yl]phenyl]-N′-[4-(trifluoromethyl)phenyl]urea], the inhibition at 1 µM (IL-2; [2]) is reported as 6%.
`CC(C)(C)OC(=O)NCCCCCCC(=O)Nc1ccc(-n2nc(C(F)(F)F)cc2C(F)(F)F)cc1` [Example 64, 1,1-dimethylethyl [7-[[4-[3,5-bis(trifluoromethyl)-1H-pyrazol-1-yl]phenyl]amino]-7-oxoheptyl]carbamate] gave a melting point of 86 to 88 °C, an IC50 (IL-2; Homo sapiens) of 22300 nM and an inhibition at 100 µM (IL-2; Homo sapiens, concentration 100 μM (in c2), read-out: % Inhibition of IL-2 secretion (At concentrations of 1, 10, or 100 μM)) of 86%.
`O=C(Nc1ccc(-n2nc(C(F)(F)F)cc2C(F)(F)F)cc1)C12CC3CC(CC(C3)C1)C2` [Example 62] gave an IC50 (IL-2) of 5040 nM.
For `O=C(CCC(=O)c1ccc(F)cc1)Nc1ccc(-n2nc(C(F)(F)F)cc2C(F)(F)F)cc1` [Example 152, N-[4-[3,5-bis(trifluoromethyl)-1H-pyrazol-1-yl]phenyl]-4-fluoro-γ-oxobenzenebutanamide], the melting point was 156 to 158 °C and the inhibition at 1 µM (IL-2; [2]) was 3%.
For `O=C(Nc1ccc(-n2nc(C(F)(F)F)cc2C(F)(F)F)cc1)c1cnnc2ccccc12` [Example 118, N-[4-[3,5-bis(trifluoromethyl)-1H-pyrazol-1-yl]phenyl]-4-cinnolinecarboxamide], the inhibition at 1 µM (IL-2; [2]) was 27%.
With `CCCCCCCNC(=O)Nc1ccc(-n2nc(C(F)(F)F)cc2C(F)(F)F)cc1` [Example 47, N-[4-[3,5-bis(trifluoromethyl)-1H-pyrazol-1-yl]phenyl]-N′-heptylurea] the melting point was 129 to 130 °C and the inhibition at 1 µM (IL-2; [2]) was 2%.
Compound `O=C(CCC1CCCC1)Nc1ccc(-n2nc(C(F)(F)F)cc2C(F)(F)F)cc1` [Example 99, N-[4-[3,5-bis(trifluoromethyl)-1H-pyrazol-1-yl]phenyl]cyclopentanepropanamide] has a melting point of 130 to 132 °C and an inhibition at 1 µM (IL-2; [2]) of 9%.
`CCCCC(CC)C(=O)Nc1ccc(-n2nc(C(F)(F)F)cc2C(F)(F)F)cc1` (stereo not drawn) [Example 72, N-[4-[3,5-bis(trifluoromethyl)-1H-pyrazol-1-yl]phenyl]-2-ethylhexanamide] showed a melting point of 127 to 128 °C and an inhibition at 1 µM (IL-2; [2]) of 11%.
For `O=C(Nc1ccc(-n2nc(C(F)(F)F)cc2C(F)(F)F)cc1)c1ccco1` [Example 113, N-[4-[3,5-bis(trifluoromethyl)-1H-pyrazol-1-yl]phenyl]-2-furancarboxamide], the melting point was 179 to 182 °C and the inhibition at 1 µM (IL-2; [2]) was 19%.
In the case of `O=C(Nc1ccccc1)Nc1ccc(-n2nc(C(F)(F)F)cc2C(F)(F)F)cc1` [Example 36, N-[4-[3,5-bis(trifluoromethyl)-1H-pyrazol-1-yl]phenyl]-N′-phenylurea], the melting point is reported as 185 to 187 °C and the inhibition at 1 µM (IL-2; [2]) is reported as 10%.
For `O=C(Nc1ccc(-n2nc(C(F)(F)F)cc2C(F)(F)F)cc1)c1cccs1` [Example 131, N-[4-[3,5-bis(trifluoromethyl)-1H-pyrazol-1-yl]phenyl]-2-thiophenecarboxamide], the melting point was > 230 °C and the inhibition at 1 µM (IL-2; [2]) was 32%.
For `Cc1nnsc1C(=O)Nc1ccc(-n2nccc2C)cc1` [Example 285, 4-Methyl-N-[4-(5-methyl-1H-pyrazol-1-yl)phenyl]-1,2,3-thiadiazole-5-carboxamide], the melting point was 163 to 164 °C and the inhibition at 1 µM (IL-2; [2]) was 26%.
For `CC(C)(Oc1ccc(Cl)cc1)C(=O)Nc1ccc(-n2nc(C(F)(F)F)cc2C(F)(F)F)cc1` [Example 155, N-[4-[3,5-bis(trifluoromethyl)-1H-pyrazol-1-yl]phenyl]-2-(4-chlorophenoxy)-2-methylpropanamide], the inhibition at 1 µM (IL-2; [2]) was 8%.
Compound `O=C(Nc1ccc(-n2nc(C(F)(F)F)cc2C(F)(F)F)cc1)Nc1ccc(Cl)c([N+](=O)[O-])c1` [Example 79, N-[4-[3,5-bis(trifluoromethyl)-1H-pyrazol-1-yl]phenyl]-N′-(4-chloro-3-nitrophenyl)urea] has a melting point of 207 to 209 °C and an inhibition at 1 µM [1] of 9%.
Work on `NC(=O)c1cccc(C(=O)Nc2ccc(-n3nc(C(F)(F)F)cc3C(F)(F)F)cc2)c1` [Example 138, N-[4-[3,5-bis(trifluoromethyl)-1H-pyrazol-1-yl]phenyl]-1,3-benzenedicarboxamide] yielded a melting point of 244 to 245 °C, an inhibition at 10 µM [1] of 99% and an IC50 [1] of 364 nM.
For `O=C(Nc1ccc(-n2nc(C(F)(F)F)cc2C(F)(F)F)cc1)C1CCCCCC1` [Example 18, N-[4[3,5-bis(trifluoromethyl)-1H-pyrazol-1-yl]phenyl]cycloheptanecarboxamide], the melting point was 174 to 175 °C, the inhibition at 100 µM [1] was 100% and the IC50 [1] was 374 nM.
`O=C(Nc1ccc(-n2nc(C(F)(F)F)cc2C(F)(F)F)cc1)c1c(F)cc(Cl)cc1Cl` [Example 232, N-[4-[3,5-bis(trifluoromethyl)-1H-pyrazol-1-yl]phenyl]-2,4-dichloro-6-fluorobenzamide] showed a melting point of 185 to 188 °C, an inhibition at 10 µM [1] of 99% and an IC50 [1] of 172 nM.
In the case of `O=C(Nc1ccc(-n2nc(C(F)(F)F)cc2C(F)(F)F)cc1)c1ccccc1Br` [Example 147, N-[4-[3,5-bis(trifluoromethyl)-1H-pyrazol-1-yl]phenyl]-2-bromobenzamide], the melting point is reported as 182 to 184 °C, the inhibition at 100 µM [1] is reported as 99% and the IC50 [1] is reported as 71 nM.
With `O=C(Nc1ccc(-n2nc(C(F)(F)F)cc2Cl)cc1)c1ccncc1Cl` [Example 346, 3-chloro-N-(4-(5-chloro-3-(trifluoromethyl)-1H-pyrazol-1-yl)phenyl)isonicotinamide] the melting point was 184 to 185 °C and the IC50 [1] was 117 nM.
`[N-]=[N+]=Nc1ccc(C(=O)Nc2ccc(-n3nc(C(F)(F)F)cc3C(F)(F)F)cc2)cc1` [Example 60, 4-Azido-N-[4-[3,5-bis(trifluoromethyl)-1H-pyrazol-1-yl]phenyl]benzamide] gave a melting point of 182 to 184 °C, an inhibition at 100 µM [1] of 100% and an IC50 [1] of 296 nM.
For `N#Cc1cccc(C(=O)Nc2ccc(-n3nc(C(F)(F)F)cc3C(F)(F)F)nc2)c1` [Example 261, N-[2-[3,5-bis(trifluoromethyl)-1H-pyrazol-1-yl]-5-pyridinyl]-3-cyanobenzamide], the melting point was 206 to 208 °C and the inhibition at 1 µM [1] was 37%.
With `O=C(Nc1ccc(-n2nc(C(F)(F)F)cc2Br)cc1)c1ccncc1Cl` [Example 349, N-(4-(5-bromo-3-(trifluoromethyl)-1H-pyrazol-1-yl)phenyl)-3-chloroisonicotinamide] the melting point was 79 to 82 °C and the IC50 [1] was 224 nM.
`O=C(Nc1ccc(-n2nc(C(F)(F)F)cc2C(F)(F)F)cc1)c1ccccc1I` [Example 110, N-[4-[3,5-bis(trifluoromethyl)-1H-pyrazol-1-yl]phenyl]-2-iodobenzamide] showed a melting point of 180 to 182 °C, an inhibition at 10 µM [1] of 99% and an IC50 [1] of 314 nM.
`O=C(Nc1ccc(-n2nc(C(F)(F)F)cc2C(F)(F)F)cc1)c1ccc(Cl)nc1Cl` [Example 149, N-[4-[3,5-bis(trifluoromethyl)-1H-pyrazol-1-yl]phenyl]-2,6-dichloro-3-pyridinecarboxamide] showed a melting point of 115 to 117 °C, an inhibition at 100 µM [1] of 100% and an IC50 [1] of 336 nM.
Work on `COc1cc(C(F)(F)F)nn1-c1ccc(NC(=O)c2cccnc2F)cc1` [Example 317, 2-fluoro-N-(4-(5-methoxy-3-(trifluoromethyl)-1H-pyrazol-1-yl)phenyl)nicotinamide] yielded a melting point of 153 to 154 °C and an IC50 [1] of 186 nM.
